US20110251068A1, “PARASITIC PLANT CONTROL AGENT AND PARASITIC PLANT CONTROL METHOD” (OSAKA UNIVERSITY, priority 2008, published 2011)

Key:
Format in all cases: in vivo
Orobanche minor [1] = experiment: Germination rate of Orobanche minor seeds in the presence of enzyme inhibitors (GR24-induced); conditions: for influence on germination of Orobanche minor: applied concurrently with GR24 0.1 mg/L, observed after four days (FIG. 8); for germination rate: Orobanche minor seeds, with GR24 0.1 mg/L, four days after application (FIG. 8)
From the text: (§1) Surfaces of seeds of Orobanche minor and Striga gesnerioides were sterilized by use of an aqueous solution containing 1% SDS and 5% sodium hypochlorite. Thereafter, the seeds were washed five times by use of sterile distilled water. Subsequently, the seeds were subjected to suction filtration and then naturally dried. GF/A glass filter paper of Φ 47 mm was spread on a laboratory dish, a GF/D glass disk of 1 cm was placed on the GF/A glass filter paper, and approximately 50 grains of the seeds were sown on the GF/D glass disk. 1.5 mL of sterile water was placed in the laboratory dish, and conditioning was carried out in a dark place at 23° C. for seven days. The GF/D glass disk was taken out of the laboratory dish on the eighth day after the beginning of conditioning and then placed on new GF/A glass filter paper. 1.5 mL of a germination stimulant GR24 (0.1 mg/L) was applied to the seeds of Orobanche minor, so as to induce its germination. A root extract of cowpea (CP) was applied to the seeds of Striga gesnerioides, so as to induce its germination. Note that concurrently with GR24 or the root extract of cowpea, nojirimycin, deoxynojirimycin, or deoxygalactonojirimycin was applied to the seeds. Note that nojirimycin is a typical β-glucosidase activity inhibitor, deoxynojirimycin is a typical α-glucosidase activity inhibitor, and deoxygalactonojirimycin is a typical galactosidase activity inhibitor. Whether or not germination occurred was observed by microscopic observation four days after application of GR24 or the root extract of cowpea (CP) and the like to the seeds.

Striga gesnerioides [2] = experiment: Germination rate of Striga gesnerioides seeds in the presence of nojirimycin (induced by root extract of cowpea); conditions: for germination rate: Striga gesnerioides seeds, rate without nojirimycin taken as 100%, cowpea root extract, four days (FIG. 10)
From the text: as §1

Orobanche minor [3] = experiment: Recovery of germination inhibition effect by addition of glucose; conditions: Orobanche minor seeds, GR24 0.1 mg/L, nojirimycin with glucose 10 mM, four days (FIG. 9)
Experimental: The following description specifically discusses how the examination was carried out. Surfaces of seeds of Orobanche minor were sterilized by use of an aqueous solution containing 1% SDS and 5% sodium hypochlorite. Thereafter, the seeds were washed five times by use of sterile distilled water. Subsequently, the seeds were subjected to suction filtration and then naturally dried. GF/A glass filter paper of Φ 47 mm was spread on a laboratory dish, a GF/D glass disk of 1 cm was placed on the GF/A glass filter paper, and approximately 50 grains of the seeds were sown on the GF/D glass disk. 1.5 mL of sterile water was placed in the laboratory dish, and conditioning was carried out in a dark place at 23° C. for seven days. The GF/D glass disk was taken out of the laboratory dish on the eighth day after the beginning of conditioning and then placed on new GF/A glass filter paper. 1.5 mL of a germination stimulant GR24 (0.1 mg/L) was applied to the seeds, so as to induce its germination. Note that concurrently with GR24, nojirimycin or a mixture of nojirimycin and glucose (glucose concentration: 10 mM) was added to the seeds. Whether or not germination occurred was observed by microscopic observation four days after application of GR24 and the like to the seeds.

Orobanche minor [4] = experiment: Selective inhibition of germination: parasitic plant Orobanche minor; conditions: with GR24 0.1 mg/L, four days (FIG. 13)
From the text: (§2) It was examined whether or not germination inhibition caused by inhibition of gentianose metabolism was a selective phenomenon with respect to a parasitic plant. Note that nojirimycin was used as a typical gentianose metabolism inhibitor. Note also that Orobanche minor and Striga gesnerioides were used as typical parasitic plants and Trifolium pratense and Arabidopsis thaliana were used as typical non-parasitic plants. The following description specifically discusses how the examination was carried out. Surfaces of seeds of Orobanche minor, Striga gesnerioides, Arabidopsis thaliana, and Trifolium pratense were sterilized by use of an aqueous solution containing 1% SDS and 5% sodium hypochlorite. Thereafter, the seeds were washed five times by use of sterile distilled water. Subsequently, the seeds were subjected to suction filtration and then naturally dried. GF/A glass filter paper of Φ 47 mm was spread on a laboratory dish, a GF/D glass disk of 1 cm was placed on the GF/A glass filter paper, and approximately 50 grains of the seeds were sown on the GF/D glass disk. 1.5 mL of sterile water was placed in the laboratory dish, and conditioning was carried out in a dark place at 23° C. for seven days. The GF/D glass disk was taken out of the laboratory dish on the eighth day after the beginning of conditioning and then placed on new GF/A glass filter paper. […]

Striga gesnerioides [5] = experiment: Selective inhibition of germination: parasitic plant Striga gesnerioides; conditions: with root extract of cowpea, four days (FIG. 13)
From the text: as §2

Trifolium pratense = experiment: Selective inhibition of germination: non-parasitic plant Trifolium pratense; conditions: only nojirimycin, no germination inducer, four days (FIG. 13)
From the text: as §2

Arabidopsis thaliana = experiment: Selective inhibition of germination: non-parasitic plant Arabidopsis thaliana; conditions: only nojirimycin, no germination inducer, four days (FIG. 13)
From the text: as §2

Structure (SMILES) | influence on germination of Orobanche minor (Orobanche minor [1]) | germination rate (Orobanche minor [1]; concentration of 1 μM) | germination rate (Orobanche minor [1]; concentration of 10 μM) | germination rate (Orobanche minor [1]; concentration of not less than 25 μM) | germination rate (Striga gesnerioides [2]; 1 μM) | germination rate (Striga gesnerioides [2]; 10 μM) [%] | germination rate (Striga gesnerioides [2]; 50 μM) [%] | germination rate (Striga gesnerioides [2]; 100 μM) [%] | germination rate (Striga gesnerioides [2]; 1 mM) [%] | influence on germination of Striga gesnerioides (Striga gesnerioides [2]; applied concurrently with root extract of cowpea, observed after four days (FIG. 10)) | germination recovery effect of glucose versus germination inhibition effect of nojirimycin (Orobanche minor [3]) | inhibition of germination of Orobanche minor (parasitic plant) (Orobanche minor [4]) | inhibition of germination of Striga gesnerioides (parasitic plant) (Striga gesnerioides [5]) | inhibition of germination of Trifolium pratense (non-parasitic plant) (Trifolium pratense) | inhibition of germination of Arabidopsis thaliana (non-parasitic plant) (Arabidopsis thaliana)
OC[C@H]1NC[C@H](O)[C@@H](O)[C@H]1O [deoxygalactonojirimycin] | no influence on germination | – | – | – | – | – | – | – | – | – | – | – | – | – | –
OC[C@H]1NC[C@H](O)[C@@H](O)[C@@H]1O [deoxynojirimycin] | no influence on germination | – | – | – | – | – | – | – | – | – | – | – | – | – | –
OC[C@H]1NC(O)[C@H](O)[C@@H](O)[C@@H]1O (some centres unmarked) [nojirimycin] | inhibited germination | approximately 20% | approximately 10% | approximately 0% | approximately 24.3% | ~7.5 | ~6.2 | ~0 | ~0 | inhibited germination | recovered by glucose | effectively inhibited germination | effectively inhibited germination | did not inhibit germination | did not inhibit germination
